As a reminder, the IC50 is the concentration needed to halve the response being measured.

Structures are written as SMILES. Read-outs that look alike come from different tables or passages of the source.

In experiment [1] the target is T1, human recombinant Monoacylglycerol Lipase (Homo sapiens, UniProt Q99685).
T1 sequence (Q99685 1-303): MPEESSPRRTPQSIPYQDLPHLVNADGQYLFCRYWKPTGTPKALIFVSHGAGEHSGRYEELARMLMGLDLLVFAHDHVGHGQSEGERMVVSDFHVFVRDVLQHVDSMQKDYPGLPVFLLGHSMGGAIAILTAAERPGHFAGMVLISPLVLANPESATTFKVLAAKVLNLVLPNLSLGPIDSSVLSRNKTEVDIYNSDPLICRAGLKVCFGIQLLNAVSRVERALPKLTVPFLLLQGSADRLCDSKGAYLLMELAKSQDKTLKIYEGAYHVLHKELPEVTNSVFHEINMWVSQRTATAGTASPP
The experiment in a line: MAGL enzymatic assay (IC50; 7-HCA substrate added at T=0 min or T=30 min). The following applies: geometric mean of 2-5 determinations unless otherwise indicated. Format: biochemical.

Experiment [2] has as its target T1, human recombinant Monoacylglycerol Lipase. Briefly: MAGL inactivation (kinact/KI from enzyme progress curves, T=0 min protocol). The following applies: from plot of Kobs vs. compound concentration, geometric mean of 2-5 determinations (b: ≥6).
The mark [3] stands for this setting: MAGL (T = 30 min) IC50, substrate 7-HCA added after 30 minute incubation (T=30 min).
Setting [4] is: substrate 7-HCA added immediately (T=0 min), read-out: MAGL (T = 0 min) IC50.

For the molecule `O=C(O[C@H](CO)C(F)(F)F)N1CCC2(CC1)CC(c1ccccn1)C2` [Example 81, (2R)-1,1,1-trifluoro-3-hydroxypropan-2-yl 2-(pyridin-2-yl)-7-azaspiro[3.5]nonane-7-carboxylate], the IC50 in experiment [1] (setting [3]) is 4 nM; in experiment [1] (setting [4]) it was 45 nM. In addition, in experiment [2], the “MAGL kinact/KI” value is recorded as 20400 1/s per M.
On the same counts, the results for `O=C(O[C@H](CO)C(F)(F)F)N1CCC2(CC1)CC(c1ccc(C(F)F)nc1)C2` [Example 82, (2R)-1,1,1-trifluoro-3-hydroxypropan-2-yl 2-[6-(difluoromethyl)pyridin-3-yl]-7-azaspiro[3.5]nonane-7-carboxylate] are 2 nM, 24 nM and 19300 1/s per M.
Consider `O=C(O[C@H](CO)C(F)(F)F)N1CCC2(CC1)CC(c1cc(C(F)(F)F)ccn1)C2` [Example 83, (2R)-1,1,1-trifluoro-3-hydroxypropan-2-yl 2-[4-(trifluoromethyl)pyridin-2-yl]-7-azaspiro[3.5]nonane-7-carboxylate], for which the IC50 in experiment [1] (setting [3]) is 0.6 nM; in experiment [1] (setting [4]), 5 nM. The “MAGL kinact/KI” value in experiment [2] is reported as 156000 1/s per M.
As to `N#Cc1ccc(C2CC3(CCN(C(=O)O[C@H](CO)C(F)(F)F)CC3)C2)nc1` [Example 84, (2R)-1,1,1-trifluoro-3-hydroxypropan-2-yl 2-(5-cyanopyridin-2-yl)-7-azaspiro[3.5]nonane-7-carboxylate], the half-inhibitory concentration (IC50) in experiment [1] (setting [3]) was 15 nM; in experiment [1] (setting [4]), 143 nM. Besides, the “MAGL kinact/KI” value in experiment [2] is given as 4000 1/s per M.
For `O=C(O[C@H](CO)C(F)(F)F)N1CCC2(CC1)CC(Oc1ccc(C(F)F)cn1)C2` [Example 85, (2R)-1,1,1-trifluoro-3-hydroxypropan-2-yl 2-{[5-(difluoromethyl)pyridin-2-yl]oxy}-7-azaspiro[3.5]nonane-7-carboxylate], the results for the IC50 in experiment [1] (setting [3]) and in experiment [1] (setting [4]) were 0.6 nM and 4 nM, respectively. In experiment [2], the “MAGL kinact/KI” value is given as 42100 1/s per M.
The corresponding values for `N#Cc1cccc(OC2CC3(CCN(C(=O)O[C@H](CO)C(F)(F)F)CC3)C2)c1` [Example 86, (2R)-1,1,1-trifluoro-3-hydroxypropan-2-yl 2-(3-cyanophenoxy)-7-azaspiro[3.5]nonane-7-carboxylate] are 0.7 nM, 9 nM and 50100 1/s per M.
The corresponding values for `O=C(O[C@H](CO)C(F)(F)F)N1CCC2(CC1)CC(Oc1ccccn1)C2` [Example 87, (2R)-1,1,1-trifluoro-3-hydroxypropan-2-yl 2-(pyridin-2-yloxy)-7-azaspiro[3.5]nonane-7-carboxylate] are 2 nM, 26 nM and 32600 1/s per M.
For the molecule `O=C(O[C@H](CO)C(F)(F)F)N1CCC2(CC1)CC(Oc1ccc(F)cn1)C2` [Example 88, (2R)-1,1,1-trifluoro-3-hydroxypropan-2-yl 2-[(5-fluoropyridin-2-yl)oxy]-7-azaspiro[3.5]nonane-7-carboxylate], the IC50 was 1 nM in experiment [1] (setting [3]) and 16 nM in experiment [1] (setting [4]). Also, the “MAGL kinact/KI” value in experiment [2] was 33000 1/s per M.
On the same counts, the results for `O=C(O[C@H](CO)C(F)(F)F)N1CCC2(CC1)CC(Oc1cc(C(F)F)ccn1)C2` [Example 89, (2R)-1,1,1-trifluoro-3-hydroxypropan-2-yl 2-{[4-(difluoromethyl)pyridin-2-yl]oxy}-7-azaspiro[3.5]nonane-7-carboxylate] are 0.8 nM, 8 nM and 31900 1/s per M.
The corresponding values for `O=C(O[C@H](CO)C(F)(F)F)N1CCC2(CC1)CC(Oc1cccc(C(F)F)n1)C2` [Example 90, (2R)-1,1,1-trifluoro-3-hydroxypropan-2-yl 2-{[6-(difluoromethyl)pyridin-2-yl]oxy}-7-azaspiro[3.5]nonane-7-carboxylate] are 0.5 nM, 9 nM and 71700 1/s per M.

For the origin of these results see US10626125B2, “1,1,1-trifluoro-3-hydroxypropan-2-yl carbamate derivatives as MAGL inhibitors” (PFIZER INC., priority 2017, dated 2020).
